According to ChEMBL document CHEMBL1201862, “PubChem BioAssay data set” (2004):
One block for each compound: values may come before it. Calls of active or inactive are those of the source.

Columns and labels:
[1] = molecular target: T1, Aminopeptidase N (Plasmodium falciparum FcB1/Columbia, UniProt O96935); assay: P. falciparum M1AAP inhibitors, biochemical, fluorogenic H-Leu-NHMec substrate, 1536-well (AID 1445); parameters: species or system Plasmodium falciparum 3D7, 3D7
T1 sequence (O96935 whole entry): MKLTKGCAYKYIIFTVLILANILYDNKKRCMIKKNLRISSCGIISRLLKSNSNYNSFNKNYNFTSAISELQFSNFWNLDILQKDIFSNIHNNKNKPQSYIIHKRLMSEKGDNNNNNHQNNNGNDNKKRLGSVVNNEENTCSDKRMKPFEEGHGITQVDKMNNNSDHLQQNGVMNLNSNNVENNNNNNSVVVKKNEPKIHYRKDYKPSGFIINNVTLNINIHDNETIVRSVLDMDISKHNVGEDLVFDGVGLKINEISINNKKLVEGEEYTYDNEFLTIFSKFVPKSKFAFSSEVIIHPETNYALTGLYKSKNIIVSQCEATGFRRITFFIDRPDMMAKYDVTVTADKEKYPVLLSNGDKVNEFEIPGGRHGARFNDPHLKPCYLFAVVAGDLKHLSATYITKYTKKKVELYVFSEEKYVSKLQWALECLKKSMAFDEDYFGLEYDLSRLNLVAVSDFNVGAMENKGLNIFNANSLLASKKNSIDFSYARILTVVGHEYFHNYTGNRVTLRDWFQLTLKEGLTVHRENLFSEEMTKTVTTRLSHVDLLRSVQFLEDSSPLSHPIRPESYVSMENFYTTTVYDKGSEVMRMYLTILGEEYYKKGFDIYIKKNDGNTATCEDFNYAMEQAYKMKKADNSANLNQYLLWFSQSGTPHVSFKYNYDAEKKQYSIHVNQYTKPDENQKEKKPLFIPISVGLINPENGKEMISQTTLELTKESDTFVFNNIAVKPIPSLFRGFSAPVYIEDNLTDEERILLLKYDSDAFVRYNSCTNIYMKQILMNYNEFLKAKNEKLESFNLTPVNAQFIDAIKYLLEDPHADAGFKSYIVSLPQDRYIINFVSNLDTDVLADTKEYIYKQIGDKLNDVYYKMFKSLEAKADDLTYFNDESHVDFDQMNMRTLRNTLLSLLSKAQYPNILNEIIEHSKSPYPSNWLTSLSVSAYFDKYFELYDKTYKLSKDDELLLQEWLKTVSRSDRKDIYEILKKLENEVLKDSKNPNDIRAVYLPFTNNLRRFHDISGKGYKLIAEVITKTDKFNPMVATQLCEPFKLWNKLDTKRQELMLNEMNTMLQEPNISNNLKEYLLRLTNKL

[2] = molecular target: T2, Short transient receptor potential channel 4 (Mus musculus, UniProt Q9QUQ5); assay: mouse TRPC4 channel inhibitors, dose response, cell-based, HEK293 TRPC4/mu-opioid, Fluo-4 calcium (AID 434942); type: functional;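 also: potency of inhibitors blocking the TRPC4 calcium response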
T2 sequence (Q9QUQ5 whole entry): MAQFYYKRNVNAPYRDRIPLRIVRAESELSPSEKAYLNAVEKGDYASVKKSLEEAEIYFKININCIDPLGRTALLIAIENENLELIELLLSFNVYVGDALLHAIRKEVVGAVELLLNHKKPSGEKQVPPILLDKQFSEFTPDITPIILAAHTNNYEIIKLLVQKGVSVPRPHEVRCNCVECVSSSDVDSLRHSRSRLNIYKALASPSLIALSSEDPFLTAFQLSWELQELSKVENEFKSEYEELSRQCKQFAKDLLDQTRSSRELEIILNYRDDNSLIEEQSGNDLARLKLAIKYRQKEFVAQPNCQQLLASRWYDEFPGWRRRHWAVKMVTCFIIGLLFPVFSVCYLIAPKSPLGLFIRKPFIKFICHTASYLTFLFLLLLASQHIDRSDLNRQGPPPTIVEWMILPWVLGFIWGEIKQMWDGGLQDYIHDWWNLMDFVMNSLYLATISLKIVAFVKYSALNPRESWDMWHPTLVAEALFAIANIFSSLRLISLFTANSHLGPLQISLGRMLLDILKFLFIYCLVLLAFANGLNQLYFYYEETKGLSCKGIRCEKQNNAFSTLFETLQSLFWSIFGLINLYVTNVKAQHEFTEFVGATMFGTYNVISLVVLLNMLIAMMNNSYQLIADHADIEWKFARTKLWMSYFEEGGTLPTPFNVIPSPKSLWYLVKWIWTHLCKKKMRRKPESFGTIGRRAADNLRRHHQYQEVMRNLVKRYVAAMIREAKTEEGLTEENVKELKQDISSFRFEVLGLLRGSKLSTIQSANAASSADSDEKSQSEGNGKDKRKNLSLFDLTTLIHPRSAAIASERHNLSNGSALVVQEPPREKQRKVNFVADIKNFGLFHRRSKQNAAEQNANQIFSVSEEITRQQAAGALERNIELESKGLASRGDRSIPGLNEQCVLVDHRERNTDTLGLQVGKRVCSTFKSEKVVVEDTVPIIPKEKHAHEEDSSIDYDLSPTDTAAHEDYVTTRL

[3] = molecular target: T2, Short transient receptor potential channel 4; assay: mouse TRPC4 channel activators, dose response, cell-based, HEK293 TRPC4/mu-opioid, Fluo-4 calcium (AID 434937); type: functional
[4] = tested on: HEK293; assay: inhibitors of LMP1-driven NF-kB reporter, dose response, cell-based, HEK293, luciferase, cherry-pick (AID 588343); type: functional; conditions: Homo sapiens
[5] = molecular target: DNA dC->dU-editing enzyme APOBEC-3G (Homo sapiens, UniProt Q9HC16); type: functional;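 also: Dose-response counterscreen measuring inhibition of APOBEC3G DNA deaminase activity, run while confirming APOBEC3A inhibitors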
[6] = molecular target: DNA dC->dU-editing enzyme APOBEC-3A (Homo sapiens, UniProt P31941); assay: Dose Response confirmation of small molecule APOBEC3A DNA Deaminase Inhibitors via a fluorescence-based single-stranded DNA deaminase assay. [Related pubchem assays (depositor defined):AID493011, AID493024]; type: functional
[7] = tested on: HEK293; assay: NOD2 signaling inhibitors in MDP-stimulated cells, cell-based, uHTS, luminescence (AID 2001); type: functional; conditions: Homo sapiens
[8] = tested on: HEK293; assay: cells; type: functional, cell-based; conditions: Homo sapiens
[9] = molecular target: Nucleotide-binding oligomerization domain-containing protein 2 (Homo sapiens, UniProt Q9HC29); assay: NOD2 signaling inhibitors, cell-based, luminescence, uHTS, HEK293 (AID 1566); type: functional
[10] = tested on: HEK293; assay: cells; type: functional, cell-based; conditions: Homo sapiens; remark: listed apart in the source
[11] = tested on: HEK293; assay: cells; type: functional, cell-based; conditions: Homo sapiens; remark: listed apart in the source
[12] = tested on: HEK293; assay: NOD1 signaling inhibitors, primary screen, cell-based, luminescence, uHTS (AID 1578); type: functional; conditions: Homo sapiens

Sequence of DNA dC->dU-editing enzyme APOBEC-3A (P31941 whole entry): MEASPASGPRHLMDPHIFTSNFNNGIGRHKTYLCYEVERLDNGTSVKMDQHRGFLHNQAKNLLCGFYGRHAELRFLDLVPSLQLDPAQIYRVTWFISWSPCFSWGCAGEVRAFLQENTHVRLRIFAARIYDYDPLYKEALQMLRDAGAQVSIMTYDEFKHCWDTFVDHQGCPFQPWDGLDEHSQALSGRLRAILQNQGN
Sequence of DNA dC->dU-editing enzyme APOBEC-3G (Q9HC16 whole entry): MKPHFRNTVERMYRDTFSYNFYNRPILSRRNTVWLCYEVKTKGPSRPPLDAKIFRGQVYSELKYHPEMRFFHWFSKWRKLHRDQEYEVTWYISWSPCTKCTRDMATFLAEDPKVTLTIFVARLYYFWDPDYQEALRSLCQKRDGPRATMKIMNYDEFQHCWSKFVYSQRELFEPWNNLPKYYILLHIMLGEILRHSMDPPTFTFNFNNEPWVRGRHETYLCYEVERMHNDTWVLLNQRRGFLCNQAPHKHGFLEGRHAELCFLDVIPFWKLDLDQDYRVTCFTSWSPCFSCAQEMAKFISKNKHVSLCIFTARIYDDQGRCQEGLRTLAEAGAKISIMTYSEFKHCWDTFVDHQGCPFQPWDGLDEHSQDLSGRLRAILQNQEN
Sequence of Nucleotide-binding oligomerization domain-containing protein 2 (Q9HC29 whole entry, the tested form may be a part): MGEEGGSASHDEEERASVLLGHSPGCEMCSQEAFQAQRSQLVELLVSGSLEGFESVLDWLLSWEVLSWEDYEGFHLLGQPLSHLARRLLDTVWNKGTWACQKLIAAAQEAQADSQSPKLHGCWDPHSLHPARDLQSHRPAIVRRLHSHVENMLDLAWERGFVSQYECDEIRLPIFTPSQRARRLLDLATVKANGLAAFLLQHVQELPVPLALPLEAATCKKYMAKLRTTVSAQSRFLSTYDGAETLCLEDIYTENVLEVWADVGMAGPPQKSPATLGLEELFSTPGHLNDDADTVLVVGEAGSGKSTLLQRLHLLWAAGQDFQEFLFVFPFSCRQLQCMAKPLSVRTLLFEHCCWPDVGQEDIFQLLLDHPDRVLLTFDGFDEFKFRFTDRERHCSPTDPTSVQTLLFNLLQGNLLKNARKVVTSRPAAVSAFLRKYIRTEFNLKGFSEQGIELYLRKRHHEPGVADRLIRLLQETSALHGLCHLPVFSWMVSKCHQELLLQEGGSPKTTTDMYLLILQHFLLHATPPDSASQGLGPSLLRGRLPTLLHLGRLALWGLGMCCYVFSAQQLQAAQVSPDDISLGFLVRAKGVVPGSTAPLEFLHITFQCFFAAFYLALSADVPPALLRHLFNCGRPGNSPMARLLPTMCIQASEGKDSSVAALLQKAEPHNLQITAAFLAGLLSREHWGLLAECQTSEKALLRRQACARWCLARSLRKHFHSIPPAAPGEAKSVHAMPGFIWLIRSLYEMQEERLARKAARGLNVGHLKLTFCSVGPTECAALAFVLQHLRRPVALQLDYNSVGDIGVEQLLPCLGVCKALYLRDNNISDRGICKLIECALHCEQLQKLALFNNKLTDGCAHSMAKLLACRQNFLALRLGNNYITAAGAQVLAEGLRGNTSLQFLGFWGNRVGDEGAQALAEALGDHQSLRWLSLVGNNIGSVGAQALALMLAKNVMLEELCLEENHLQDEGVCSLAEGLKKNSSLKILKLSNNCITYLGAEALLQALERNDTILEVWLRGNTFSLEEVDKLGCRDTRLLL

IC50 [1]: 30.4 µM (active)
SMILES: Cc1ccc(-c2n[nH]c3c2C(c2ccccc2)N(c2ccc(C(=O)O)cc2)C3=O)cc1 (stereo not given)

EC50 [2]: 1.68 µM (active)
SMILES: Cc1ncsc1CCOC(=O)c1cccc([N+](=O)[O-])c1

IC50 [1]: 89.5 µM (active)
SMILES: COc1ccc(OC)c(NC(=O)C2C3C=CC(C3)C2C(=O)NCc2ccccn2)c1 (stereo not given)

EC50 [2]: 1.68 µM (active)
EC50 [3]: 2.11 µM (active)
SMILES: Cc1c(C(=O)N(Cc2cccs2)C2CCS(=O)(=O)C2)oc2ccccc12 (stereo not given)

SMILES: Cc1cc(C)n(C2CCCCC2OC(=O)c2ccccc2F)n1 (stereo not given)
AC50 [4]: > 350 µM (inactive)

SMILES: COC(=O)C1=C(C)N(Cc2ccccc2)C(NCCCCO)=N[C@H]1c1ccccc1
IC50 [5]: 5.13 µM (active)
IC50 [6]: 2.27 µM (active)

SMILES: Cc1cc(/C=C2\SC(=O)N(C)C2=O)c(C)n1-c1ccc(S(N)(=O)=O)cc1
IC50 [5]: 4.58 µM (active)
IC50 [6]: 3.12 µM (active)

SMILES: CCOC(=O)C1CCN(S(=O)(=O)c2ccc3c(c2)N(C(C)=O)CC(C)S3)CC1 (stereo not given)
IC50 [7]: > 20 µM (inactive)
IC50 [8]: > 20 µM (inactive)
EC50 [9]: > 20 µM (inactive)
IC50 [10]: 19.7 µM (active)
IC50 [11]: > 20 µM (inactive)
EC50 [12]: 7.03 µM (active)

SMILES: Cc1ccc(Nc2c([N+](=O)[O-])nn(-c3ccc4c(c3)OCCO4)[n+]2[O-])cc1F
AC50 [4]: 0.538 µM (active)
IC50 [7]: > 20 µM (inactive)
IC50 [8]: > 20 µM (inactive)
EC50 [9]: > 20 µM (inactive)
IC50 [10]: 0.842 µM (active)
IC50 [11]: > 20 µM (inactive)
EC50 [12]: > 20 µM (inactive)

SMILES: CC1(C)CC(N2CCOCC2)=CC(=[N+]2CCOCC2)C1
IC50 [5]: 2.26 µM (active)
IC50 [6]: 2.59 µM (active)
